Read-outs that look alike come from different tables or passages of the source.
Tests used:
[1] = Hypouricemic effect (oxonic acid-induced hyperuricemic beagle dogs); type: in vivo; conditions: hyperuricemic beagle dog, oral, 10 mg/kg, 8 hours after administration
Description: Potassium oxonate (50 mg/kg) was subcutaneously administrated before and 4 hours after compound administration. After the blood was collected from the cephalic vein at 8 hours after administration, the plasma was separated. The level of uric acid in the plasma sample was measured by LC-MS/MS method and the percentage of hypouricemic effect was determined by the following expression:
Percentage of hypouricemic effect (%)=(Level of uric acid of the control animal−Level of uric acid of the test compound-administered animal)×100/Level of uric acid of the control animal.

[2] = target: XO activity (oxidase-type xanthine oxidoreductase) (Rattus norvegicus, UniProt P22985); assay: Prolonged inhibition of tissue and plasma XO activity after oral administration (pterin-based assay); conditions: 27 h
Description: The tissue includes liver, kidney, adipose tissue, intestine and vessel.
A test compound suspended in a 0.5% methylcellulose solution was administered to 7 to 9 week-old Sprague-Dawley male rats (Japan Charles River Co.) by oral gavage administration using a feeding needle. The blood was collected from the abdominal vein and tissue was collected at 24 or 27 hours after administration. Plasma sample was prepared by centrifugation.
Tissue XO activity, tissue XOR activity and plasma XO activity were measured by the pterin-based assay which utilizes the reaction that pterin is oxidized by each type of xanthine oxidoreductase to produce fluorescent isoxanthopterin. […] Then the homogenates were centrifuged 12,000 rpm for 15 min at 4° C. When measured XO activity, the supernatant of tissue and plasma were respectively co-incubated with 50 μM pterin solution at 37° C. When measured XOR activity, the supernatant of tissue homogenate was co-incubated with 50 μM pterin and 50 μM methylene blue solution at 37° C. As a control, oxidase-type xanthine oxidoreductase (from buttermilk, manufactured by Calbiochem Novabiochem Corp.) was also incubated with pterin solution in the same manner. XO activity and XOR activity of the samples were determined from fluorescence intensity which normalized by the intensity value of control and protein concentration.
The percentage of XO activity inhibition and XOR activity inhibition were determined by the following expression:
Percentage of XO or XOR activity inhibition (%)=(XO or XOR activity of the control animal−XO or XOR activity of the test compound-administered animal)×100/XO or XOR activity of the control animal.

[3] = read-out: % inhibition of XO activity (vs. vehicle), Kidney, 1 mg/kg, 27 hours after administration
[4] = read-out: % inhibition of XO activity (vs. vehicle), Kidney, 10 mg/kg, 27 hours after administration
[5] = read-out: % inhibition of XO activity (vs. vehicle), Liver, 1 mg/kg, 27 hours after administration
[6] = read-out: % inhibition of XO activity (vs. vehicle), Liver, 10 mg/kg, 27 hours after administration
[7] = read-out: % inhibition of XO activity (vs. vehicle), Plasma, 1 mg/kg, 27 hours after administration
[8] = read-out: % inhibition of XO activity (vs. vehicle), Plasma, 10 mg/kg, 27 hours after administration

Chain of XO activity (oxidase-type xanthine oxidoreductase) (P22985 whole entry): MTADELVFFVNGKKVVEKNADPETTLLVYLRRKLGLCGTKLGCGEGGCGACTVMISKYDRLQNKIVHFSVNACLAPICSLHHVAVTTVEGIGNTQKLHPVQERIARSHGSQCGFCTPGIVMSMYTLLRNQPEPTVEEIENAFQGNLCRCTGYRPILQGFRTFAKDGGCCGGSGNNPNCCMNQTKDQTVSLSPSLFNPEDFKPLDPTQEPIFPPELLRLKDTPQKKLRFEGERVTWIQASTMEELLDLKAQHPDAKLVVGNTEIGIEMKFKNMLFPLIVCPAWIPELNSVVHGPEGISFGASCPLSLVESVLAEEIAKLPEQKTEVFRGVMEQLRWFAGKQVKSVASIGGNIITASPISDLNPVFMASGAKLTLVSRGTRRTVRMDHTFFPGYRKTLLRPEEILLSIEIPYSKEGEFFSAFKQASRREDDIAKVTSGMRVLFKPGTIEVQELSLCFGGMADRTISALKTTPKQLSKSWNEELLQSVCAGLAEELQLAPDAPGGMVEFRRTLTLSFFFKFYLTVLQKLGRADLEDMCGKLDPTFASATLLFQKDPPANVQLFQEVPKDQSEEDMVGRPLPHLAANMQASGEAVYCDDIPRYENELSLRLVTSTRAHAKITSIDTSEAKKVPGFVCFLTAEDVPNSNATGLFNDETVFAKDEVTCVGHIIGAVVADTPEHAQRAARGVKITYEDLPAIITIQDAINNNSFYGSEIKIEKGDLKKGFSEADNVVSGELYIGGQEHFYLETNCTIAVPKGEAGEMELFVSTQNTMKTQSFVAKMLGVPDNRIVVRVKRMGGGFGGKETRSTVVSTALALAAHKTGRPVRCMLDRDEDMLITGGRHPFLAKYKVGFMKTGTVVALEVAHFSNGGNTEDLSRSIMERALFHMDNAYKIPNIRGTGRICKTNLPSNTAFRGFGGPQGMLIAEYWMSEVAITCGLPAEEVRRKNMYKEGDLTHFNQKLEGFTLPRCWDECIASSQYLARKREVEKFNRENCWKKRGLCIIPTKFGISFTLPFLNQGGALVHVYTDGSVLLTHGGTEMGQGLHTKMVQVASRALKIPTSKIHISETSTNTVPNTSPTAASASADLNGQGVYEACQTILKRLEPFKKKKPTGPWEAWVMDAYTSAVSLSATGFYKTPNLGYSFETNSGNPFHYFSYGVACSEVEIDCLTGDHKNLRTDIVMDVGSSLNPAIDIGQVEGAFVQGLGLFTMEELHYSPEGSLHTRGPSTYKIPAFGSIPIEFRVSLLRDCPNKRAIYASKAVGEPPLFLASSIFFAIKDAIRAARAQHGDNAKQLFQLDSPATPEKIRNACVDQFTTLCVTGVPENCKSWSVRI

SMILES	hypouricemic effect [1]	inhibition in vivo at 1 mg/kg [2, 3] [%]	inhibition in vivo at 10 mg/kg [2, 4] [%]	inhibition in vivo at 1 mg/kg [2, 5] [%]	inhibition in vivo at 10 mg/kg [2, 6] [%]	inhibition in vivo at 1 mg/kg [2, 7] [%]	inhibition in vivo at 10 mg/kg [2, 8] [%]
Cc1nc(-c2ccc(OCC(C)C)c(-n3cnnn3)c2)sc1C(=O)O [Compound 25, 4-methyl-2-[4-(2-methylpropoxy)-3-(1H-1,2,3,4-tetrazol-1-yl)phenyl]-1,3-thiazole-5-carboxylic acid]	showed a hypouricemic effect	–	–	–	–	–	–
Cc1nc(-c2ccc(OCC(C)C)c(-n3ccnn3)c2)sc1C(=O)O [Compound 17, 4-methyl-2-[4-(2-methylpropoxy)-3-(1H-1,2,3-triazol-1-yl)phenyl]-1,3-thiazole-5-carboxylic acid]	–	≥ 60	≥ 70	≥ 80	≥ 80	≥ 25	≥ 40
Cc1nc(-c2ccc(OCC(C)(C)C)c(-n3cnnn3)c2)sc1C(=O)O [Compound 26, 2-[4-(2,2-dimethylpropoxy)-3-(1H-1,2,3,4-tetrazol-1-yl)phenyl]-4-methyl-1,3-thiazole-5-carboxylic acid]	–	≥ 60	≥ 70	≥ 80	≥ 80	≥ 25	≥ 40

Reference: patent US20170217948A1, “XANTHINE OXIDASE INHIBITOR” (Teijin Pharma Limited, priority 2014, published 2017)
